Source: ChEMBL document CHEMBL4725402, “Discovery of thiapyran-pyrimidine derivatives as potential EGFR inhibitors” (Bioorg Med Chem, 2020)

How the values were obtained:
L02 = test: Cytotoxicity against human L02 cells assessed as reduction in cell viability measured after 72 hrs by MTT assay; type: cell-based; conditions: L02, 72 h
[1] = Selectivity index, ratio of IC50 for human L02 cells to IC50 for human A549 cells assessed as reduction in cell viability measured after 72 hrs by MTT assay; type: toxicity; conditions: L02 cells versus A549 cells, read-out: Ratio IC50
A549 = test: Antiproliferation activity against human A549 cells assessed as reduction in cell viability measured after 72 hrs by MTT assay; type: functional, cell-based; conditions: A549, 72 h
NCI-H1975 = test: Antiproliferation activity against human NCI-H1975 cells harboring EGFR T790M/L858R mutation assessed as reduction in cell viability measured after 72 hrs by MTT assay; type: functional, cell-based; conditions: NCI-H1975, 72 h
HeLa = test: Antiproliferation activity against human HeLa cells assessed as reduction in cell viability measured after 72 hrs by MTT assay; type: functional, cell-based
MCF7 = test: Antiproliferation activity against human MCF7 cells assessed as reduction in cell viability measured after 72 hrs by MTT assay; type: functional, cell-based; conditions: MCF7, 72 h
[2] = target: Epidermal growth factor receptor (Homo sapiens, UniProt P00533); test: Inhibition of wild type EGFR (unknown origin) using FAM-labelled peptide as substrate incubated for 10 mins in presence of ATP by Kinase Glo luminescence assay
[3] = target: Epidermal growth factor receptor (Homo sapiens, UniProt P00533, T790M); test: Inhibition of EGFR T790M mutant (unknown origin) using FAM-labelled peptide as substrate incubated for 10 mins fin presence of ATP by Kinase Glo luminescence assay
Homo sapiens = species on record: Homo sapiens; test: Inhibition of PI3K (unknown origin) at 1 uM relative to control
[4] = target: Epidermal growth factor receptor (Homo sapiens, UniProt P00533, L858R/T790M); test: Inhibition of EGFR T790M/L858R mutant (unknown origin) using FAM-labelled peptide as substrate incubated for 10 mins in presence of ATP by Kinase Glo luminescence assay
[5] = target: Serine/threonine-protein kinase mTOR (Homo sapiens) (UniProt P42345); test: Inhibition of mTOR (unknown origin) at 1 uM relative to control
[6] = target: Hepatocyte growth factor receptor (Homo sapiens) (UniProt P08581); test: Inhibition of C-MET (unknown origin) at 1 uM relative to control
[7] = target: Vascular endothelial growth factor receptor 2 (Homo sapiens) (UniProt P35968); test: Inhibition of KDR (unknown origin) at 1 uM relative to control

Sequence of Epidermal growth factor receptor (Homo sapiens, UniProt P00533, T790M) (P00533 25-1210 T790M limits assumed): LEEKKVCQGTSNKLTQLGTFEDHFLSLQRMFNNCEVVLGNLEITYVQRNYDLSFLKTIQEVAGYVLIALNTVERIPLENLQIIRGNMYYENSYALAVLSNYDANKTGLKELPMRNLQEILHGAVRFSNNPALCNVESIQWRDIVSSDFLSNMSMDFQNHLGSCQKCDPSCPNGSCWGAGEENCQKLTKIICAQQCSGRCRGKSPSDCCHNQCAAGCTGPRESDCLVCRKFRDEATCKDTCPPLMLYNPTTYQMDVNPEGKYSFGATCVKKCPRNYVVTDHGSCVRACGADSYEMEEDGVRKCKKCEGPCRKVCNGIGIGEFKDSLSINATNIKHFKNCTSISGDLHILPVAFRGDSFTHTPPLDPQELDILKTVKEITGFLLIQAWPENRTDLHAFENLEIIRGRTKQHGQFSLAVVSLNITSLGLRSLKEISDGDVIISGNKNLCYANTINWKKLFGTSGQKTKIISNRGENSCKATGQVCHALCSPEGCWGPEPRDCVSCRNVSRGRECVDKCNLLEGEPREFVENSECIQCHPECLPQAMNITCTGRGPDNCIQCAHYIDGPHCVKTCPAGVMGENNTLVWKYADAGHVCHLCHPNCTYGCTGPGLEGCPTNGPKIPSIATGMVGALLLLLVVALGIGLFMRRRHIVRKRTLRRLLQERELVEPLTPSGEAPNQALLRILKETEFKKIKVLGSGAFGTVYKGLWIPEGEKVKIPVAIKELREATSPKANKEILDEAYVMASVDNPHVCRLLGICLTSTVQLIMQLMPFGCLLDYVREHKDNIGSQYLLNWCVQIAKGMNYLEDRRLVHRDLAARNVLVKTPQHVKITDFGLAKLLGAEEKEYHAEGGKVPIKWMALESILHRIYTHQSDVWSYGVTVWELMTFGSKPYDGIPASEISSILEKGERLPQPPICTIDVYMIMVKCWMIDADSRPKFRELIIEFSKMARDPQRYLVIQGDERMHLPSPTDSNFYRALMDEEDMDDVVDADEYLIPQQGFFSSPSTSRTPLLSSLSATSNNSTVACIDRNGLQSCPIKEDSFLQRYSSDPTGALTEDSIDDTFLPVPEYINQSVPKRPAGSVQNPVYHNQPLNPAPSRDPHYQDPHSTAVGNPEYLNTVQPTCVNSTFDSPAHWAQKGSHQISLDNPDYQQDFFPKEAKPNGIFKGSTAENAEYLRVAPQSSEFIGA
Sequence of Epidermal growth factor receptor (Homo sapiens, UniProt P00533) (P00533 whole entry): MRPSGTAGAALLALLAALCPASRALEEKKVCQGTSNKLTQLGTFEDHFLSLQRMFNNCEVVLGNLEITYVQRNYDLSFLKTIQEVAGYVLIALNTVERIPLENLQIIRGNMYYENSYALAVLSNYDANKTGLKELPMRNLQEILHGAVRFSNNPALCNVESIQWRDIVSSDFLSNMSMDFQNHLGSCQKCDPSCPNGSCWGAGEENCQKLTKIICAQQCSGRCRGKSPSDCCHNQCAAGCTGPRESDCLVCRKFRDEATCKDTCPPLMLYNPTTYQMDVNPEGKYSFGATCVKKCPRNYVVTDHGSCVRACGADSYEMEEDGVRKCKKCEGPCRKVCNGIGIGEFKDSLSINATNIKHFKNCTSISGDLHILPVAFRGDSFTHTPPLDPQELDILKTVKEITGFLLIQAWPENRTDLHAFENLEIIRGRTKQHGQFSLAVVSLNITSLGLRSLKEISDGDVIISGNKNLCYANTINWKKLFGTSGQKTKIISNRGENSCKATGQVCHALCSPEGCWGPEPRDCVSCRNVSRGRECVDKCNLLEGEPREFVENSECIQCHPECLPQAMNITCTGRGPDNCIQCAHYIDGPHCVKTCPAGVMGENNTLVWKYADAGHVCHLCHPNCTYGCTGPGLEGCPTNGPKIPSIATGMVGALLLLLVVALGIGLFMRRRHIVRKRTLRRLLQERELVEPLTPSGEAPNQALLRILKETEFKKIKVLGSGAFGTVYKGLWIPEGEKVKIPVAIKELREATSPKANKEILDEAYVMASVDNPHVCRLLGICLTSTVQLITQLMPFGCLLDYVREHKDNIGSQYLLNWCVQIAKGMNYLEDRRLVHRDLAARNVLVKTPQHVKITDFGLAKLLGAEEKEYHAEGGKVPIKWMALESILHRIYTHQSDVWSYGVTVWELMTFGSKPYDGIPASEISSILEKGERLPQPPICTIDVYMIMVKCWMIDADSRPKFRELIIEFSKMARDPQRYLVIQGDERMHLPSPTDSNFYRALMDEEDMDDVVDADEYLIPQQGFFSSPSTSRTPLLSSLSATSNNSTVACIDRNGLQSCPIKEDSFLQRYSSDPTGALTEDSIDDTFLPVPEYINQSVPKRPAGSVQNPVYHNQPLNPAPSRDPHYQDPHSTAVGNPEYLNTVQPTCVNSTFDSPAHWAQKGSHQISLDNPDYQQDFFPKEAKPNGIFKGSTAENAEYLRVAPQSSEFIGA
Sequence of Hepatocyte growth factor receptor (Homo sapiens) (P08581 whole entry): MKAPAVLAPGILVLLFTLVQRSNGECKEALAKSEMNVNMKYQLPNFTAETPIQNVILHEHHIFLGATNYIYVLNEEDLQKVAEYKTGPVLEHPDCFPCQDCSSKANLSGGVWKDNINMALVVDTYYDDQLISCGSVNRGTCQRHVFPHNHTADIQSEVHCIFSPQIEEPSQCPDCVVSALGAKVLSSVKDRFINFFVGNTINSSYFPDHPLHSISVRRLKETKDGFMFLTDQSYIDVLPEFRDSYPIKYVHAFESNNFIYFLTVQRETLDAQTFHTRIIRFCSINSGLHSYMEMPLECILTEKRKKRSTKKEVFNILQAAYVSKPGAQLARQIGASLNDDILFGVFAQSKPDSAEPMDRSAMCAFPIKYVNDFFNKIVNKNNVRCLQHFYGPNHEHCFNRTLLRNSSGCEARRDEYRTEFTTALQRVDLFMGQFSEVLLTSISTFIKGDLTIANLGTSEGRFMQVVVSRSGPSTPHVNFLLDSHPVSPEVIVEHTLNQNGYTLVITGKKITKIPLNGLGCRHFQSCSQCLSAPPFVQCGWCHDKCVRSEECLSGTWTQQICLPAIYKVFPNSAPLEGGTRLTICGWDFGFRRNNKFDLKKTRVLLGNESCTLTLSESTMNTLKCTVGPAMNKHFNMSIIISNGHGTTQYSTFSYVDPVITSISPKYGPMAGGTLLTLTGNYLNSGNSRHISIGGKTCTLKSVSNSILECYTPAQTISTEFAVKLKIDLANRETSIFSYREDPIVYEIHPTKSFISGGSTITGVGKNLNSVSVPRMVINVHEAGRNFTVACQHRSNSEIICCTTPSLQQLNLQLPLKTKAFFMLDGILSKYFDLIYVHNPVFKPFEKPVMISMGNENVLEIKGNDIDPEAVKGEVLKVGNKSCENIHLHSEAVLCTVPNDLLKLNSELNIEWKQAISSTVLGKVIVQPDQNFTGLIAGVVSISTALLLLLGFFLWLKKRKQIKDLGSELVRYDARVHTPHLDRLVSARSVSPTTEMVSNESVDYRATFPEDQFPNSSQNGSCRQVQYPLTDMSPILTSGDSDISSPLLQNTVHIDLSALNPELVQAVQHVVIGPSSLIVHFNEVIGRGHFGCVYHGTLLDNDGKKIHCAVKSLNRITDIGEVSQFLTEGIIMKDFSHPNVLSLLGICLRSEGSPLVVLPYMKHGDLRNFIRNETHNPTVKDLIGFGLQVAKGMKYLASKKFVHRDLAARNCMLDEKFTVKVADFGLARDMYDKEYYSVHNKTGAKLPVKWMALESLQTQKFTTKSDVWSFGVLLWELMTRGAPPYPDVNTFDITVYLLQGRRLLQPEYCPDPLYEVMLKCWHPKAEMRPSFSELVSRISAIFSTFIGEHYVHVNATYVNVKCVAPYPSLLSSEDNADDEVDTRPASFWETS
Sequence of Epidermal growth factor receptor (Homo sapiens, UniProt P00533, L858R/T790M) (P00533 25-1210 T790M/L858R limits assumed): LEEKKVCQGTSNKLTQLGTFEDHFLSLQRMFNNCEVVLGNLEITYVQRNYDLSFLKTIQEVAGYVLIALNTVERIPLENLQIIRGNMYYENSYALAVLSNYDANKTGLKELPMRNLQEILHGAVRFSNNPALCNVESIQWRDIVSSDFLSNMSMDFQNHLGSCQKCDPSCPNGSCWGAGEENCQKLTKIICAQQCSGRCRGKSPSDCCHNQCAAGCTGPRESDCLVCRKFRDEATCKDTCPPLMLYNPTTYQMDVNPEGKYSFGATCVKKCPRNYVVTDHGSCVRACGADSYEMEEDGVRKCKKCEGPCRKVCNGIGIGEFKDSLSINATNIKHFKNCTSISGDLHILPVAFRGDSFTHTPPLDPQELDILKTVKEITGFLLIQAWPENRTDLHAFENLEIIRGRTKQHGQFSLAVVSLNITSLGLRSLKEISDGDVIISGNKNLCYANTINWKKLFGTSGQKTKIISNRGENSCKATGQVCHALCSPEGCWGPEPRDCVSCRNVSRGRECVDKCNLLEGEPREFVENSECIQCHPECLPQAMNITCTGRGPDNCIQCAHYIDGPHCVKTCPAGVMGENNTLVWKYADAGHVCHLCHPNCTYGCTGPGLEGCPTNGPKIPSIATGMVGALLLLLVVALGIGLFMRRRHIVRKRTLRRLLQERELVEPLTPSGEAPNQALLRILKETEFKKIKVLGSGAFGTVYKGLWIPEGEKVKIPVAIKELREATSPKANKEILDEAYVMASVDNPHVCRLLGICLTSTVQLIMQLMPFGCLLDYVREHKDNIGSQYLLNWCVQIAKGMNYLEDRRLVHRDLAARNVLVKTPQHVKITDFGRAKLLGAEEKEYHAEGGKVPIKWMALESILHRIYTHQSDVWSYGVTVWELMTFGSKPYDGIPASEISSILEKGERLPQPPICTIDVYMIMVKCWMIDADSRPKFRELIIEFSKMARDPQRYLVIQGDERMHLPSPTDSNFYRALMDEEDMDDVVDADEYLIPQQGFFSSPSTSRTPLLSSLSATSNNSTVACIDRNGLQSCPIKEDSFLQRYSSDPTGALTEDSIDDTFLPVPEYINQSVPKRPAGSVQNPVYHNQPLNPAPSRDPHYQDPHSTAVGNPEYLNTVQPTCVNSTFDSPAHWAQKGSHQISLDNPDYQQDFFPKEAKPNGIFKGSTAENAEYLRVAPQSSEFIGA

For `C=C(F)C(=O)Nc1cccc(Oc2nc(Nc3cccc(OC)c3)nc3c2CSCC3)c1`, which IC50 (L02) is on record?
The IC50 was 41.2 µM.

And the selectivity ratio at 72 h [1]?
The selectivity ratio at 72 h was 1.39.

And the IC50 (A549)?
The IC50 was 29.6 µM.

What about the IC50 (NCI-H1975) of the same molecule?
Its IC50 is 26.1 µM.

What about the IC50 (HeLa) of the same molecule?
The IC50 was 44.8 µM.

What about the IC50 (MCF7) of the same molecule?
The IC50 was greater than 50 µM.

What does the source list for `CCC/C=C/C(=O)Nc1cccc(Oc2nc(Nc3ccc(OC)nc3)nc3c2CSCC3)c1`?
IC50 (L02): > 50 µM; selectivity ratio at 72 h [1]: > 4.62; IC50 (A549): 10.8 µM; IC50 (NCI-H1975): 17.9 µM; IC50 (HeLa): 15.3 µM; IC50 (MCF7): 26.8 µM

Which IC50 (L02) does the source give for `COc1cccc(Nc2nc3c(c(Oc4cccc(NC(=O)/C=C/C(C)C)c4)n2)CSCC3)c1` here?
Its IC50 is greater than 50 µM.

And the selectivity ratio at 72 h [1]?
Its selectivity ratio at 72 h is greater than 1.98.

What about the IC50 (A549) of the same molecule?
The IC50 was 25.3 µM.

What about the IC50 (NCI-H1975) of the same molecule?
Its IC50 is 25.1 µM.

What about the IC50 (HeLa) of the same molecule?
The IC50 was greater than 50 µM.

And the IC50 (MCF7)?
Its IC50 is 21.8 µM.

Which IC50 (L02) does the source give for `C/C=C/C(=O)Nc1cccc(Oc2nc(Nc3ccc(OC)nc3)nc3c2CSCC3)c1` here?
The IC50 was greater than 50 µM.

And the selectivity ratio at 72 h [1]?
The selectivity ratio at 72 h was greater than 6.22.

What about the IC50 [2] of the same molecule?
Its IC50 is greater than 1 µM.

And the IC50 (A549)?
Its IC50 is 8.04 µM.

And the IC50 (NCI-H1975)?
The IC50 was 13.9 µM.

And the IC50 [3]?
Its IC50 is greater than 1 µM.

And the IC50 (HeLa)?
The IC50 was 16.5 µM.

What about the IC50 (MCF7) of the same molecule?
The IC50 was 21.1 µM.

Which results are given for `COc1cccc(Nc2nc3c(c(Oc4cccc(NC(=O)C=C(C)C)c4)n2)CSCC3)c1`?
IC50 (L02): > 50 µM; selectivity ratio at 72 h [1]: > 2.52; IC50 (A549): 19.8 µM; IC50 (NCI-H1975): 21.9 µM; IC50 (HeLa): 19.1 µM; IC50 (MCF7): > 50 µM

With `CCC/C=C/C(=O)Nc1cccc(Oc2nc(Nc3cccc(C#N)c3)nc3c2CSCC3)c1` as the molecule, how does the inhibition (Homo sapiens) read?
Its inhibition is 62.2%.

And the IC50 (L02)?
The IC50 was greater than 50 µM.

And the IC50 [4]?
Its IC50 is greater than 1 µM.

And the selectivity ratio at 72 h [1]?
The selectivity ratio at 72 h was greater than 8.64.

And the IC50 [2]?
Its IC50 is greater than 1 µM.

And the inhibition [5]?
The inhibition was 10%.

What about the IC50 (A549) of the same molecule?
Its IC50 is 5.79 µM.

What about the IC50 (NCI-H1975) of the same molecule?
Its IC50 is 10.8 µM.

And the IC50 [3]?
Its IC50 is greater than 1 µM.

And the IC50 (HeLa)?
Its IC50 is 7.22 µM.

And the IC50 (MCF7)?
Its IC50 is 15.3 µM.

And the inhibition [6]?
Its inhibition is 3.6%.

For `CC/C=C/C(=O)Nc1cccc(Oc2nc(Nc3cccc(C#N)c3)nc3c2CSCC3)c1`, which IC50 (L02) is on record?
The IC50 was greater than 50 µM.

What about the selectivity ratio at 72 h [1] of the same molecule?
Its selectivity ratio at 72 h is greater than 4.95.

What about the IC50 (A549) of the same molecule?
Its IC50 is 10.1 µM.

And the IC50 (NCI-H1975)?
Its IC50 is 17.2 µM.

And the IC50 (HeLa)?
The IC50 was 31.8 µM.

And the IC50 (MCF7)?
The IC50 was 15.8 µM.

What does the source list for `C=CC(=O)Nc1cccc(Oc2nc(Nc3cccc(C#N)c3)nc3c2CSCC3)c1`?
inhibition (Homo sapiens): 44.3%; IC50 (L02): > 50 µM; IC50 [4]: > 1 µM; inhibition [7]: -0.9%; selectivity ratio at 72 h [1]: > 7.29; IC50 [2]: > 1 µM; IC50 (A549): 6.86 µM; IC50 (NCI-H1975): 4.59 µM; IC50 [3]: > 1 µM; IC50 (HeLa): 34.9 µM; IC50 (MCF7): 21.7 µM; inhibition [6]: 2.4%
